Key:
[1] = system: beta amyloid production; experiment: Repressor Release Assay (RRA); format: cell-based; conditions: for fold induction at 3 µg/mL: Conc 3 μg/ml; for APPI % of Example #98: relative to Example 98
Summary of the method: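 Read-out is luciferase luminescence (RLU) after 36-48 h duplicate compound exposure of transfected CHO-K1 cells. These cells carry transiently introduced APP-lacI and pRSVO-luc DNA. Diluent control was 25 mM Hepes/1% DMSO; toxicity recorded as binary score (1 non-toxic, 0 toxic).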

[2] = system: CHO-K1 cells; experiment: Toxicity in RRA (loss of luciferase signal); conditions: toxicity = loss of signal (<0.75 fold increase)
Protocol: The beta amyloid inhibitory activity of the compounds of the present invention was determined using the Repressor Release Assay (RRA).
“Fold Increase” refers to the amount of luciferase activity (measured in relative light units) over diluent control. “SEM” refers to the standard error of the mean for fold increase.

[3] = Conc 20 μg/ml, luciferase activity over diluent control, read-out: APPI Fold Increase
[4] = luciferase activity over diluent control, read-out: APPI Fold Increase
[5] = Conc 20 μg/ml, luciferase activity over diluent control
[6] = Conc 10 μg/ml, luciferase activity over diluent control, read-out: APPI Fold Increase

SMILES | fold induction at 20 µg/mL [1, 3] | (%)APPI Toxicity ([2]; Conc 20 μg/ml) | further results
CC[C@](C)(CO)NS(=O)(=O)c1ccc(Cl)cc1 [Example 97, 4-chloro-N-[(1R)-1-(hydroxymethyl)-1-methylpropyl]benzenesulfonamide] | 1.5 | 1 (1=non-toxic) | 
CC[C@H](C)[C@@H](CO)NS(=O)(=O)c1ccc(Br)cc1 [Example 98, 4-bromo-N-[(1S,2S)-1-(hydroxymethyl)-2-methylbutyl]-benzenesulfonamide] |  | 1 (1=non-toxic) | fold induction at 3 µg/mL [1, 4]: 1.79; (%)APPI Toxicity ([2]; Conc 3 μg/ml): 1 (1=non-toxic); (%)APPI Toxicity ([2]; Conc 10 μg/ml): 1 (1=non-toxic)
CCCCC(CO)NS(=O)(=O)c1ccc(Br)cc1 (centres unmarked) [Example 99, 4-bromo-N-[1-(hydroxymethyl)pentyl]benzenesulfonamide] | 1.7 | 1 (1=non-toxic) | 
C[C@@H](NS(=O)(=O)c1ccc(Br)cc1)[C@@H](O)c1ccccc1 [Example 100, 4-bromo-N-[(1R,2S)-2-hydroxy-1-methyl-2-phenylethyl] benzenesulfonamide] |  | 1 (1=non-toxic) | APPI Fold Increase [1, 5]: 1.6 fold; APPI % of Example #98 ([1]; Conc 20 μg/ml): 41%
O=S(=O)(N[C@H](CO)c1ccccc1)c1ccc(Br)cc1 [Example 101, 4-bromo-N-[(1S)-2-hydroxy-1-phenylethyl]benzenesulfonamide] | 1.6 | 1 (1=non-toxic) | 
CC(C)C[C@H](CO)NS(=O)(=O)c1ccc(Br)cc1 [Example 102, 4-bromo-N-[(1R)-1-(hydroxymethyl)-3-methylbutyl]benzenesulfonamide] | 1.5 | 1 (1=non-toxic) | 
O=S(=O)(NC1(CO)CCCC1)c1ccc(Cl)cc1 [Example 103, 4-chloro-N-[1-(hydroxymethyl)cyclopentyl]benzenesulfonamide] | 2.6 | 1 (1=non-toxic) | 
CCCC(CO)NS(=O)(=O)c1ccc(Br)cc1 (centres unmarked) [Example 104, 4-bromo-N-[1-(hydroxymethyl)butyl]benzenesulfonamide] | 1.5 | 1 (1=non-toxic) | 
CCCC(CO)NS(=O)(=O)c1cccc(Cl)c1 (centres unmarked) [Example 105, 3-chloro-N-[1-(hydroxymethyl)butyl]benzenesulfonamide] |  |  | fold induction at 10 µg/mL [1, 6]: 1.54; (%)APPI Toxicity ([2]; Conc 10 μg/ml): 1 (1=non-toxic)
O=S(=O)(N[C@H](CO)CC1CCCCC1)c1cccc(Cl)c1 [Example 106, 3-chloro-N-[(1S)-2-cyclohexyl-1-(hydroxymethyl)ethyl]benzenesulfonamide] | 1.6 | 1 (1=non-toxic) | 
CSCC[C@H](CO)NS(=O)(=O)c1cccc(Cl)c1 [Example 107, 3-chloro-N-[(1R)-1-(hydroxymethyl)-3-(methylthio)propyl]benzenesulfonamide] |  |  | fold induction at 1 µg/mL ([1]; Conc 1 μg/ml, luciferase activity over diluent control, read-out: APPI Fold Increase): 2.35; (%)APPI Toxicity ([2]; Conc 1 μg/ml): 1 (1=non-toxic)
CC[C@@H](CO)NS(=O)(=O)c1cccc(Cl)c1 [Example 108, 3-chloro-N-[(1S)-1-(hydroxymethyl)propyl]benzene sulfonamide] |  |  | fold induction at 3 µg/mL [1, 4]: 1.66; (%)APPI Toxicity ([2]; Conc 3 μg/ml): 1 (1=non-toxic)
CC(C)C[C@@H](CO)NS(=O)(=O)c1ccccc1F [Example 109, 2-fluoro-N-[(1S)-1-(hydroxymethyl)-3-methylbutyl]benzenesulfonamide] | 1.9 | 1 (1=non-toxic) | 
CCCCC(CO)NS(=O)(=O)c1ccccc1F (centres unmarked) [Example 110, 2-fluoro-N-[1-(hydroxymethyl)pentyl] benzenesulfonamide] |  | 1 (1=non-toxic) | APPI Fold Increase [1, 5]: 1.7 fold; APPI % of Example #98 ([1]; Conc 20 μg/ml): 46.5%
C[C@H](NS(=O)(=O)c1ccccc1F)[C@@H](O)c1ccccc1 [Example 111, 2-fluoro-N-[(1 S,2 S)-2-hydroxy-1-methyl-2-phenylethyl] benzenesulfonamide] |  | 1 (1=non-toxic) | APPI Fold Increase [1, 5]: 1.7 fold; APPI % of Example #98 ([1]; Conc 20 μg/ml): 47.8%
O=S(=O)(N[C@H](CO)c1ccccc1)c1ccccc1F [Example 112, 2-fluoro-N-[(1S)-2-hydroxy-1-phenylethyl]benzene sulfonamide] | 1.8 | 1 (1=non-toxic) | 
CC(C)C[C@H](CO)NS(=O)(=O)c1ccccc1F [Example 113, 2-fluoro-N-[(1R)-1-(hydroxymethyl)-3-methylbutyl]benzenesulfonamide] | 1.6 | 1 (1=non-toxic) | 

SMILES | fold induction at 20 µg/mL [1, 3] | (%)APPI Toxicity ([2]; Conc 20 μg/ml) | further results
O=S(=O)(NC1(CO)CCCC1)c1ccccc1F [Example 114, 2-fluoro-N-[1-(hydroxymethyl)cyclopentyl]benzenesulfonamide] | 1.5 | 1 (1=non-toxic) | 
O=S(=O)(N[C@H](CO)CC1CCCCC1)c1ccccc1F [Example 115, N-[(1S)-2-cyclohexyl-1-(hydroxymethyl)ethyl]-2-fluorobenzenesulfonamide] | 1.8 | 1 (1=non-toxic) | 
CSc1ccc([C@H](O)[C@H](CO)NS(=O)(=O)c2ccccc2F)cc1 [Example 116, 2-fluoro-N-{(1S,2S)-2-hydroxy-1-(hydroxymethyl)-2-[4-(methylthio)phenyl]ethyl}benzenesulfonamide] | 1.6 | 1 (1=non-toxic) | 
O=S(=O)(N[C@H](CO)Cc1ccccc1)c1ccccc1F [Example 118, N-[(1S)-1-benzyl-2-hydroxyethyl]-2-fluorobenzenesulfonamide] | 1.6 | 1 (1=non-toxic) | 
CC(C)[C@@H](CO)NS(=O)(=O)c1ccccc1F [Example 119, 2-fluoro-N-[(1S)-1-(hydroxymethyl)-2-methylpropyl]benzenesulfonamide] | 1.5 | 1 (1=non-toxic) | 
O=S(=O)(NC1(CO)CCCCC1)c1ccc(Br)cc1 [Example 120, 4-Bromo-N-[1-(hydroxymethyl)-cyclohexyl]-benzenesulfonamide] | 5 | 1 (1=non-toxic) | 
O=S(=O)(NC1(CO)CC2CCC1C2)c1ccc(Br)cc1 (centres unmarked) [Example 121, 4-bromo-N-[2-(hydroxymethyl)bicyclo[2.2.1.]hept-2-yl]benzenesulfonamide] |  | 1 (1=non-toxic) | APPI Fold Increase [1, 5]: 1.7 fold; APPI % of Example #98 ([1]; Conc 20 μg/ml): 45.1%
O=S(=O)(NC1(CO)CCc2ccccc21)c1ccc(Br)cc1 (centres unmarked) [Example 122, 4-bromo-N-[1-(hydroxymethyl)-2,3-dihydro-1H-inden-1-yl]benzenesulfonamide] | 1.5 | 1 (1=non-toxic) | 
O=S(=O)(NC1(CO)CCCCC1)c1ccc(Cl)cc1 [Example 123, 4-chloro-N-[1-(hydroxymethyl)cyclohexyl]benzenesulfonamide] | 4.4 | 1 (1=non-toxic) | 
O=S(=O)(NC1(CO)CCc2ccccc21)c1ccc(Cl)cc1 (centres unmarked) [Example 124, 4-chloro-N-[1-(hydroxymethyl)-2,3-dihydro-1H-inden-1-yl]benzenesulfonamide] | 2 | 1 (1=non-toxic) | 
O=S(=O)(NC(CO)(c1ccccc1)C1CCC1)c1ccc(Cl)cc1 (centres unmarked) [Example 125, 4-chloro-N-(1-cyclobutyl-2-hydroxy-1-phenylethyl)benzenesulfonamide] | 1.8 | 1 (1=non-toxic) | 
CC[C@H](C)[C@H](NS(=O)(=O)c1ccc(F)cc1)C(C)O (stereo partly drawn) [Example 126, 4-fluoro-N-[(1S,2S)-1-(1-hydroxyethyl)-2-methylbutyl]benzenesulfonamide] |  |  | fold induction at 3 µg/mL [1, 4]: 1.54; fold induction at 10 µg/mL [1, 6]: 1.52; (%)APPI Toxicity ([2]; Conc 3 μg/ml): 1 (1=non-toxic); (%)APPI Toxicity ([2]; Conc 10 μg/ml): 1 (1=non-toxic)
CC[C@H](C)[C@H](NS(=O)(=O)c1ccc(F)cc1)C(O)C1CCCC1 (stereo partly drawn) [Example 127, N-{(1S,2S)-1-[cyclopentyl(hydroxy)methyl]-2-methylbutyl}-4-fluorobenzenesulfonamide] |  |  | fold induction at 10 µg/mL [1, 6]: 2.97; (%)APPI Toxicity ([2]; Conc 10 μg/ml): 1 (1=non-toxic)
CCCCC(O)[C@@H](NS(=O)(=O)c1ccc(F)cc1)[C@@H](C)CC (stereo partly drawn) [Example 130, 4-fluoro-N-{(1S)-2-hydroxy-1-[(1S)-1-methylpropyl]hexyl}benzenesulfonamide] |  |  | fold induction at 10 µg/mL [1, 6]: 2.4; (%)APPI Toxicity ([2]; Conc 10 μg/ml): 1 (1=non-toxic)
CC[C@H](C)[C@H](NS(=O)(=O)c1ccc(F)cc1)C(O)c1ccccc1C (stereo partly drawn) [Example 131, 4-fluoro-N{(1S,2S)-1-[hydroxy-(2-methylphenyl)methyl]-2-methylbutyl}benzenesulfonamide] |  |  | APPI Fold Increase ([1]; Conc 10 μg/ml, luciferase activity over diluent control): 1.65 fold; APPI % of Example #98 ([1]; Conc 10 μg/ml): 64.57%; (%)APPI Toxicity ([2]; Conc 10 μg/ml): 1 (1=non-toxic)
CC[C@H](C)[C@H](NS(=O)(=O)c1ccc(F)cc1)C(O)C(C)(C)C (stereo partly drawn) [Example 132, 4-fluoro-N-{(1S)-2-hydroxy-3,3-dimethyl-1-[(1S)-1-methylpropyl]butyl}benzenesulfonamide] |  |  | fold induction at 10 µg/mL [1, 6]: 1.54; (%)APPI Toxicity ([2]; Conc 10 μg/ml): 1 (1=non-toxic)
C=CC(O)[C@@H](NS(=O)(=O)c1ccc(F)cc1)[C@@H](C)CC (stereo partly drawn) [Example 133, 4-fluoro-N-{(1S)-2-hydroxy-1-[(1S)-1-methylpropyl]-3-butenyl}benzenesulfonamide] |  |  | fold induction at 10 µg/mL [1, 6]: 1.79; (%)APPI Toxicity ([2]; Conc 10 μg/ml): 1 (1=non-toxic)

Source: patent US7166622B2, “Substituted phenylsulfonamide inhibitors of beta amyloid production” (Wyeth, priority 2002, dated 2007)
